The record followed here is BindingDB's records for doi:10.1124/mol.58.6.1511 (Albert Einstein College of Medicine, 2000).

The structures appear in SMILES notation.

In assay [1] the target is Prostaglandin F2-alpha receptor (Human, UniProt P43088).
In assay [2] the target is Solute carrier organic anion transporter family member 2A1 (Homo sapiens, UniProt Q92959).

Prostaglandin F2-alpha receptor, sequence (P43088 whole entry): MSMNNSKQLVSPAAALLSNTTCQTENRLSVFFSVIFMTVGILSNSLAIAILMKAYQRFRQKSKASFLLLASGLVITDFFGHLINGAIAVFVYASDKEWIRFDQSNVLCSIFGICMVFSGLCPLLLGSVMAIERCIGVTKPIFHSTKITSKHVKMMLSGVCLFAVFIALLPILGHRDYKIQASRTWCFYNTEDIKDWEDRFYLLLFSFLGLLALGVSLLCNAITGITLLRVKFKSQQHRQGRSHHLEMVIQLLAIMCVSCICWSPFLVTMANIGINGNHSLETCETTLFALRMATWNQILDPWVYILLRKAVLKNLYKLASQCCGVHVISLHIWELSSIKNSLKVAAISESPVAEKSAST

In general, Ki refers to the dissociation constant of the complex between target and ligand, obtained from inhibition or displacement. Low values mean a stronger hold on the target, high ones a looser hold on the target. On to `CCCCCC(O)C=CC1C(O)CC(O)C1CC=CCCCC(=O)OC(C)C` (stereo not drawn) [PGF2 Alpha, 1-isopropyl ester], for which the Ki came out at 3.2 µM in assay [1] and 5 µM in assay [2].
As for `CCCCC[C@H](/C=C/[C@@H]1[C@@H](C/C=C/CCCC(=O)O)[C@@H](O)C[C@H]1O)OC` [AGN 191995], the Ki in assay [1] is 0.228 µM; in assay [2], over 10 µM.
Taken in the same sequence, the figures for `CCCCC[C@@H](O)/C=C/[C@@H]1[C@@H](C/C=C/CCCc2nnn[nH]2)[C@@H](O)C[C@H]1O` [AGN 191366] were 8.13 µM and 0.071 µM.
On to `CC(C)OC(=O)CCC/C=C\C[C@@H]1[C@@H](/C=C/[C@@H](O)CCc2ccccc2)[C@H](O)C[C@@H]1O` [CAS_130209-76-6], for which the figures for the Ki in assay [1] and in assay [2] were 0.018 µM and 0.168 µM, respectively.
`CCCCC[C@H](O)/C=C/C1[C@H](O)C[C@H](O)[C@@H]1C/C=C\CCCC(=O)O` (stereo partly drawn) [(Z)-7-[(1R,3R,5S)-3,5-Dihydroxy-2-((E)-(S)-3-hydroxy-oct-1-enyl)-cyclopentyl]-hept-5-enoic acid] returned an inhibition constant Ki in assay [2] of 0.045 µM.
As to `CCCCC[C@@H](O)/C=C/[C@@H]1[C@@H](C/C=C/CCCC(N)=O)[C@@H](O)C[C@H]1O` [AGN 190911], the Ki is over 10 µM in assay [1] and 7.3 µM in assay [2].
The like results for `CCCCC[C@@H](O)/C=C/[C@@H]1[C@@H](C/C=C/CCCS(=O)(=O)NC(C)=O)[C@@H](O)C[C@H]1O` [AGN 194394] were, in that order, over 10 µM and 0.034 µM.
As to `CCCCC[C@H](/C=C/[C@@H]1[C@@H](C/C=C/CCCC(N)=O)[C@@H](O)C[C@H]1O)OC` [AGN 192151], the Ki in assay [1] and in assay [2] was over 10 µM throughout.
As to `CCCCC[C@@H](O)/C=C/[C@@H]1[C@@H](C/C=C/CCCC(=O)NS(C)(=O)=O)[C@@H](O)C[C@H]1O` [AGN 191365], the inhibitory constant (Ki) is over 10 µM in assay [1] and 0.307 µM in assay [2].
Taken in the same sequence, the figures for `CCCCC[C@@H](O)/C=C/[C@@H]1[C@@H](C/C=C/CCCCN)[C@@H](O)C[C@H]1O` [AGN 191088] were over 10 µM and over 10 µM.
